# Source: patent publication US20100240591A1, “TPP II INHIBITORS FOR USE IN THE TREATMENT OF AUTOIMMUNE AND INFLAMMATORY DISEASES AND TRANSPLANT REJECTION” (ONCOREG AB, priority 2007, published 2010)
# Values joined by “and” are separate entries in the source; they are usually repeats but may differ in a detail not shown here. Equal entries are not always repeated. The star is where a group is joined. Cbz = O=C(OCc1ccccc1)*
# Assays:
# TPPII [1] = biological target: T1, TPPII (Mus musculus, UniProt Q64514); assay: Immuno-cytochemical staining of TPPII in live EL-4 cells treated with inhibitor; format: cell-based; design: endogenous in cells; host or cells: EL-4 mouse T-cell lymphoma; conditions: 2 hours, 10 micro-M
# T1 sequence (Q64514 2-1262 limits assumed): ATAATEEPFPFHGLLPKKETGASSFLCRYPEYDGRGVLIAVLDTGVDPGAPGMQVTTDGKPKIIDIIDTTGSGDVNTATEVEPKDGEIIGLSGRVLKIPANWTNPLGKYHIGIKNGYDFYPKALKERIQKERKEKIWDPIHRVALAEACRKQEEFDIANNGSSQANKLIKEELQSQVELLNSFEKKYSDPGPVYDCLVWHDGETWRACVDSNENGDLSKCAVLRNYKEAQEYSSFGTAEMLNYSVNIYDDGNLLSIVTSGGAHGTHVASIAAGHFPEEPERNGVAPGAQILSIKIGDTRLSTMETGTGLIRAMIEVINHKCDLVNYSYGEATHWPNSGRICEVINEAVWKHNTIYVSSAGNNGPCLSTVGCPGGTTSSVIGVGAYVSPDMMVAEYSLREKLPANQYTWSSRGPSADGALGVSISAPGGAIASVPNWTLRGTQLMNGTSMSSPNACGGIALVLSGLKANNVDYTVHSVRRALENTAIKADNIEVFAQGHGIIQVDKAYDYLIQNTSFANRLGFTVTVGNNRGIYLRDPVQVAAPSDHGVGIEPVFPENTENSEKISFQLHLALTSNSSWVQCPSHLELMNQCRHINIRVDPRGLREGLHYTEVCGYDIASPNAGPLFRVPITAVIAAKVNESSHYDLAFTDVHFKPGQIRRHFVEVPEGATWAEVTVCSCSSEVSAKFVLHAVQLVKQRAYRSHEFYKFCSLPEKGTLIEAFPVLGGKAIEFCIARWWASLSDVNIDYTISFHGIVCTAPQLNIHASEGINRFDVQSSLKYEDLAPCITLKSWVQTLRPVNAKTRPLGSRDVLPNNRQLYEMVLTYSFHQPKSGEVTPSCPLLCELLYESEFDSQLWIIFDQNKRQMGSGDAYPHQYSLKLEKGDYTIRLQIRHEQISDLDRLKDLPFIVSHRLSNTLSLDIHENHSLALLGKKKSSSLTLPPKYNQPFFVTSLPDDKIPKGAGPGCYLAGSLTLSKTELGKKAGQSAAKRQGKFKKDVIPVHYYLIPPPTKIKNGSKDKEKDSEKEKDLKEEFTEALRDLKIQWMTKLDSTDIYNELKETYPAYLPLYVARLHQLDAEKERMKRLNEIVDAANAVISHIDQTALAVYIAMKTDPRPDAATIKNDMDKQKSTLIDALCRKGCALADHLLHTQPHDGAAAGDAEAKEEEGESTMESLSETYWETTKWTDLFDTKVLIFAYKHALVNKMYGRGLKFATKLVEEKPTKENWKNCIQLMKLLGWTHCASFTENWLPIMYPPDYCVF
# Experimental: Immunocytochemistry. Cells were attached to glass cover slips through cytospin and fixed in acetone:methanol (1:1) for 1 hour; then the slides were rehydrated in BSS buffer for 1 hour. The first antibody was added and remained for 1 hour until a brief wash in BSS, after which a secondary conjugate (anti-rabbit-FITC) was added and incubated for 1 hour.
# Then the slides were washed and stained with Hoescht 333258 for 30 min. Finally, the slides were mounted with DABCO mounting buffer and kept at 4° C. until analysis.
# We performed immuno-cytochemical staining to test whether targeting of TPPII in live cells affected enzyme expression or distribution, by the use of a chicken anti-TPPII serum.
# TPPII [2] = biological target: T1, TPPII; assay: Inhibition of cleavage of AAF-AMC by enriched TPP II (fluorometric peptidase assay); format: biochemical; design: 1 ug of high molecular weight protein was used as enzyme in peptidase assays; endogenous in cells; EL-4 (mouse T lymphoma) by inference; conditions: for cleavage of AAF-AMC, single reading: arbitrary but relative units; for cleavage of AAF-AMC, mean: mean of three readings
# Experimental: Protein Purification, Peptidase Assays and Analysis of DNA Fragmentation. 100×10^6 cells were sedimented and lysed by vortexing in glass beads and homogenisation buffer (50 mM Tris Base pH 7.5, 250 mM Sucrose, 5 mM MgCl2, 1 mM DTT). Cellular lysates were submitted to differential centrifugation where a supernatant from a 1 hour centrifugation at 100,000×g (cytosol) was submitted to 100,000×g centrifugation for 3-5 hours, which sedimented high molecular weight cytosolic proteins/protein complexes. The resulting pellet dissolved in 50 mM Tris Base pH 7.5, 30% Glycerol, 5 mM MgCl2, and 1 mM DTT, and 1 micro-g of high molecular weight protein was used as enzyme in peptidase assays or in Western blotting for TPP II expression. To test the activity of TPP II we used the substrate AAF-AMC (Sigma, St. Louis, Mo.), at 100 micro-M concentration in 100 micro-I of test buffer composed of 50 mM Tri Base pH 7.5, 5 mM MgCl2 and 1 mM DTT. Cleavage activity was measured by emission at 460 nm in a LS50B Luminescence Spectrometer (Perkin Elmer, Boston, Mass.). For analysis of DNA fragmentation cells were seeded in 12-well plates at 10^6 cells/ml and exposed to 25 micro-M etoposide, a DNA topoisomerase II inhibitor commonly used as an apoptosis-inducing agent, to starvation (50% PBS). Cells were seeded at 10^6 cells/ml in 12-well plates and incubated for the indicated times, usually 18-24 hours. DNA from EL-4 control and adapted cells was purified by standard chloroform extraction, and 2.5 micro-g of DNA was loaded on 1.8% agarose gel for detection of DNA from apoptotic cells.
# Table 1 contains in vitro data, in fluorometric units which are arbitrary but relative, for the inhibition of cleavage of AAF-AMC (H-Ala-Ala-7-amido-4-methylcoumarin) by compounds at several concentrations. Some beneficial effect is seen for most of the compounds tested.
# TPP II protein was enriched, and then a TPP II-preferred fluorogenic substrate AAF-AMC was used. 100×10^6 cells were sedimented and lysed by vortexing in glass beads and homogenisation buffer (50 mM Tris Base pH 7.5, 250 mM Sucrose, 5 mM MgCl2, 1 mM DTT). Cellular lysates were subjected to differential centrifugation; first the cellular homogenate was centrifuged at 14,000 rpm for 15 min, and then the supernatant was transferred to ultra-centrifugation tubes. Next the sample was ultra-centrifugated at 100,000×g for 1 hour, and the supernatant (denoted as cytosol in most biochemical literature) was subjected to 100,000×g centrifugation for 5 hours, which sedimented high molecular weight cytosolic proteins/protein complexes. The resulting pellet dissolved in 50 mM Tris Base pH 7.5, 30% Glycerol, 5 mM MgCl2, and 1 mM DTT, and 1 ug of high molecular weight protein was used as enzyme in peptidase assays.
# To test the activity of TPP II we used the substrate and AAF-AMC (Sigma, St. Louis, Mo.), at 100 uM concentration in 100 ul of test buffer composed of 50 mM Tri Base pH 7.5, 5 mM MgCl2 and 1 mM DTT. To stop reactions we used dilution with 900 ul 1% SDS solution. Cleavage activity was measured by emission at 460 nm in a LS50B Luminescence Spectrometer (Perkin Elmer, Boston, Mass.).
# Subtilisin = conditions: bacterial homologue of the eukaryotic TPP II; cited from earlier work
# EL-4 T-lymphoma cells = assay: Growth of EL-4 T-lymphoma cells in vivo in syngeneic C57BI/6 mice; design: species or system mouse; conditions: 13.8 mg/kg Z-GLA-OH added to 5 mg/kg Dexamethasone, twice weekly, C57BI/6 mice (FIG. 9)
# Experimental: To test whether our TPPII inhibitors could improve the therapeutic effects of an anti-inflammatory drug in vivo, we examined growth of the T cell-derived lymphoma line EL-4 in vivo, in mice subjected to Cortisone-treatment. We used the derivate Dexamethasone at 5 mg/kg, a dose previously reported to cause thymocyte apoptosis, and a block of T cell responses in vivo (Brewer, J. A., Kanagawa, O., Sleckman, B. P., Muglia, L. J., Thymocyte apoptosis induced by T cell activation is mediated by glucocorticoids in vivo. J. Immunol. 2002, 169:1837-43.). The glucocorticoid receptor of T cells is crucial for curtailing lethal immune activation (Brewer J A, Khor B, Vogt S K, Muglia L M, Fujiwara H, Haegele K E, Sleckman B P, Muglia L J. T-cell glucocorticoid receptor is required to suppress COX-2-mediated lethal immune activation. Nat. Med. 2003 October; 9(10):1318-22.). Inhibited activation and proliferation of T cells in vivo by Dexamethasone-treatment is a standard method to treat patients with auto-immune, inflammatory as well as transplantation rejection diseases. It is however clear that disease symptoms, as well as immune activation and proliferation, are sometimes not controlled by Dexamethasone, or other Cortisone derivatives. […]
# 5×10^6 EL-4 T-lymphoma cells were inoculated subcutaneously into syngeneic C57BI/6 mice. […] The size of EL-4 lymphoma tumours were measured manually twice weekly. […]
substance,measurement,setting,value
Cbz-Gly-Leu-Ala-OH [Z-GLA-OH],detection of TPPII by immuno-cytochemical staining,TPPII [1],"rapid decrease in the detection of TPPII, to almost undetectable levels"
same,"cleavage of AAF-AMC, single reading",TPPII [2]; compound 1 nM,32.54 fluorometric units and 32.61 fluorometric units and 33.41 fluorometric units
same,"cleavage of AAF-AMC, mean",TPPII [2]; compound 1 nM,32.85 fluorometric units
same,"cleavage of AAF-AMC, single reading",TPPII [2]; compound 10 nM,21.74 fluorometric units and 21.93 fluorometric units and 24.44 fluorometric units
same,"cleavage of AAF-AMC, mean",TPPII [2]; compound 10 nM,22.70 fluorometric units
same,"cleavage of AAF-AMC, single reading",TPPII [2]; compound 100 nM,14.43 fluorometric units and 14.26 fluorometric units and 14.37 fluorometric units
same,"cleavage of AAF-AMC, mean",TPPII [2]; compound 100 nM,14.35 fluorometric units
same,"cleavage of AAF-AMC, single reading",TPPII [2]; compound 1 uM,11.43 fluorometric units and 11.9 fluorometric units and 11.46 fluorometric units
same,"cleavage of AAF-AMC, mean",TPPII [2]; compound 1 uM,11.60 fluorometric units
same,"cleavage of AAF-AMC, single reading",TPPII [2]; compound 10 uM,6.47 fluorometric units and 7.66 fluorometric units and 7.49 fluorometric units
same,"cleavage of AAF-AMC, mean",TPPII [2]; compound 10 uM,7.21 fluorometric units
same,"cleavage of AAF-AMC, single reading","TPPII [2]; compound 100 uM, 0 compound about 47-51",1.14 fluorometric units and 1.44 fluorometric units and 1.55 fluorometric units
same,"cleavage of AAF-AMC, mean",TPPII [2]; compound 100 uM,1.38 fluorometric units
same,inhibition of Subtilisin,Subtilisin,found to inhibit
same,"anti-proliferative effect on EL-4 cells in vivo, in combination",EL-4 T-lymphoma cells,increased the anti-proliferative effects of Dexamethasone in some of the mice
